Measured values taken from ChEMBL document CHEMBL1144037, “Structural requirements for the stability of novel cephalosporins to AmpC beta-lactamase based on 3D-structure” (2008).
Values after ≈ are worked out from the molar mass of the structure shown.

Assays:
Assay type in all cases: functional
[1] = system: Pseudomonas aeruginosa; assay: Antibacterial activity against Pseudomonas aeruginosa PAO1 after 18 hrs by agar dilution method; conditions: PAO1, 18 h
[2] = system: Pseudomonas aeruginosa; assay: Antibacterial activity against Pseudomonas aeruginosa PAO1 ampD-deffective mutant after 18 hrs by agar dilution method; conditions: PAO1, 18 h
[3] = system: Pseudomonas aeruginosa; assay: Antibacterial activity against Pseudomonas aeruginosa FP1380 after 18 hrs by agar dilution method; conditions: FP1380, 18 h

Row | SMILES | MIC [1] [µg/mL] | MIC [2] [µg/mL] | MIC [3] [µg/mL]
1 | CCCc1c[n+](CC2=C(C(=O)[O-])N3C(=O)[C@@H](NC(=O)/C(=N\OC(C)(C)C(=O)O)c4nsc(N)n4)[C@H]3SC2)n(C)c1N | 2 (≈ 3.29 µM) | 1 (≈ 1.65 µM) | 
2 | Cn1c(N)c(CCCCCN)c[n+]1CC1=C(C(=O)[O-])N2C(=O)[C@@H](NC(=O)/C(=N\OC(C)(C)C(=O)O)c3nsc(N)n3)[C@H]2SC1 | 2 (≈ 3.07 µM) | 1 (≈ 1.54 µM) | 
3 | Cn1c(N)c(N)c[n+]1CC1=C(C(=O)[O-])N2C(=O)[C@@H](NC(=O)/C(=N\OC(C)(C)C(=O)O)c3nsc(N)n3)[C@H]2SC1 | 4 (≈ 6.89 µM) | 0.5 (≈ 0.861 µM) | 
4 | Cn1c(N)c(CCCCN)c[n+]1CC1=C(C(=O)[O-])N2C(=O)[C@@H](NC(=O)/C(=N\OC(C)(C)C(=O)O)c3nsc(N)n3)[C@H]2SC1 | 1 (≈ 1.57 µM) | 0.5 (≈ 0.785 µM) | 
5 | Cn1c(CCN)cc[n+]1CC1=C(C(=O)[O-])N2C(=O)[C@@H](NC(=O)/C(=N\OC(C)(C)C(=O)O)c3nsc(N)n3)[C@H]2SC1.O=S(=O)(O)O | 1 | 0.5 | 
6 | Cn1c(N)c(CN)c[n+]1CC1=C(C(=O)[O-])N2C(=O)[C@@H](NC(=O)/C(=N\OC(C)(C)C(=O)O)c3nsc(N)n3)[C@H]2SC1 | 4 (≈ 6.73 µM) | 0.5 (≈ 0.841 µM) | 
7 | CC(C)(O/N=C(\C(=O)N[C@@H]1C(=O)N2C(C(=O)[O-])=C(C[n+]3ccc(N)n3CCO)CS[C@H]12)c1nsc(N)n1)C(=O)O.Cl | 0.5 | 4 | 16
8 | CC(C)(O/N=C(\C(=O)N[C@@H]1C(=O)N2C(C(=O)[O-])=C(C[n+]3ccccc3)CS[C@H]12)c1csc(N)n1)C(=O)O [CEFTAZIDIME] |  |  | 128 (≈ 234 µM)
